{"source": "patent US12377087B2", "about": "“Compounds for the treatment of cancer” (UNIVERSITY OF LOUISVILLE RESEARCH FOUNDATION, INC., priority 2015, dated 2025)", "key": {"human recombinant PFKFB4": {"target": "human recombinant PFKFB4 (Homo sapiens, UniProt Q16877)", "sequence (Q16877 whole entry)": "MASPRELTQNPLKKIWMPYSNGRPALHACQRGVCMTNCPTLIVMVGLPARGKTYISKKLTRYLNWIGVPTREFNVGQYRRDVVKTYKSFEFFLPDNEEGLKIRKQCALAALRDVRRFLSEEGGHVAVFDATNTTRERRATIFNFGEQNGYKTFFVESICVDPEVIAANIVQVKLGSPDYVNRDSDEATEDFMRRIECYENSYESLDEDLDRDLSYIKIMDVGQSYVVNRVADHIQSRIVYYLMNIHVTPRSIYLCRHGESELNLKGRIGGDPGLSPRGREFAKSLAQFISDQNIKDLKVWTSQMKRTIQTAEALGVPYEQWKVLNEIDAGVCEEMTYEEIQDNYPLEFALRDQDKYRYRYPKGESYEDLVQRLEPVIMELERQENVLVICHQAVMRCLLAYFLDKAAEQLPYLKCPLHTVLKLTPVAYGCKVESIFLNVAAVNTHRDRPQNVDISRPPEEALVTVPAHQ", "experiment": "fructose-6-phosphate kinase activity of human recombinant PFKFB4 (in vitro kinase assay)", "assay_type": "biochemical", "description": "(§1) Kinase assays: The fructose-6-phosphate kinase activity of human recombinant PFKFB4 in the presence of DMSO±indicated 5MPN concentrations was assayed as previously described. The activity of 5MPN against 97 kinases was examined using a commercially available active-site dependent competition binding assay core service (KINOMEscanEDGE) that quantifies the capacity of lest agents to compete with an immobilized, active-site directed ligand using a DNA-tagged kinase and immobilized ligand and compound. For example, enzyme inhibition was studies using a ADP-Glo assay. […] ADP is converted into ATP, which is converted into light by a luciferase."}, "[1]": {"tested_on": "panel of 97 protein kinases", "experiment": "KINOMEscan active-site dependent competition binding assay", "conditions": "10 μM; data not shown", "description": "as §1"}, "H1299": {"tested_on": "H1299", "experiment": "viable cell count of H1299 cells", "assay_type": "cell-based", "conditions": "H1299, 48 hours", "description": "(§2) Cell Viability: Cells were incubated in 20% trypan blue (Sigma) for 5 minutes. Cells excluding trypan blue were counted using a standard hemocytometer (Hausser Scientific) to determine total numbers of viable cells. Data are expressed as mean±SD of three experiments."}, "H441": {"tested_on": "H441", "experiment": "viable cell count of H441 cells", "assay_type": "cell-based", "conditions": "H441, 48 hours", "description": "as §2"}, "A549": {"tested_on": "A549", "experiment": "viable cell count of A549 cells", "assay_type": "cell-based", "conditions": "A549, 48 hours", "description": "as §2"}, "MDA-MB-231": {"tested_on": "MDA-MB-231", "experiment": "viable cell count of MDA-MB-231 cells", "assay_type": "cell-based", "conditions": "MDA-MB-231, 48 hours", "description": "as §2"}, "LNCaP": {"tested_on": "LNCaP", "experiment": "viable cell count of LNCaP cells", "assay_type": "cell-based", "conditions": "48 hours", "description": "as §2"}, "HCT116": {"tested_on": "HCT116", "experiment": "viable cell count of HCT116 cells", "assay_type": "cell-based", "conditions": "HCT116, 48 hours", "description": "as §2"}, "hT/LT/Ras cells": {"tested_on": "hT/LT/Ras cells", "experiment": "viable cell count of hT/LT/Ras cells", "assay_type": "cell-based, human", "conditions": "48 hours", "excerpt": "Cell lines and cell culture: H460, H1299, H441, H522 and A549 non-small cell lung cancer (NSCLC), MDA-MB-231 (breast), LNCaP (prostatic) and HCT116 (colon) adenocarcinoma and Lewis lung carcinoma (LLC) cell lines were obtained from ATCC and used within 6 months of acquisition, PFKFB4^7 ear pinna Fibroblasts isolated from TamCre/loxP/PFKFB4^−/− mice were immortalized as described previously (Chesney J et al. Fructose-2,6-bisphosphate synthesis by 6-phosphofructo-2-kinase/fructose-2,6-bisphosphatase 4 (PFKFB4) is required for the glycolytic response to hypoxia and tumor growth. Oncotarget 2014 Aug. 30; 5(16):6670-86). Normal bronchial epithelial cells (NHBE) were obtained from Lonza and NHBE cells expressing telomerase, SV40 large T antigen and activated Ras (hT/LT/Ras) were a gift from Dr. B. J. Rollins, Dana Farber Cancer Institute. All cell lines were tested and found negative for mycoplasma (PCR Mycoplasma Detection Kit, ABM). […]\nas §2"}, "LLC cells": {"tested_on": "LLC cells", "experiment": "in vitro cell cycle analysis of LLC cells", "assay_type": "cell-based", "conditions": "10 μM 5MPN", "description": "Flow Cytometry: To measure apoptosis, cells were stained with annexin V and propidium iodide and examined as previously described. […] DMSO used as vehicle. For cell cycle experiments, cells were detached, washed with cold PBS and fixed in 70% ethanol (4° C. 30 minutes). The cells then were pelleted by centrifugation, resuspended in PBS containing PI and RNase A, incubated at 37° C. in the dark for 30 minutes and analyzed by flow cytometry (BD FACSCalibur). Data were analyzed using FlowJo software (TREE STAR Inc.). Results were calculated as the mean±SD of three experiments."}, "[2]": {"experiment": "pharmacokinetic profile of 5MPN after IV and oral administration", "assay_type": "in vivo", "conditions": "C57BL/6 mice", "description": "In vivo Studies. The pharmacokinetic profile was determined in female C57BL/6 mice following IV and oral administration of 5MPN. Using only female mice lowered the animal numbers required for meaningful results without issues of potential gender differences in exposure. Eight time points (n=3/time point) were used to determine PK parameters calculated using WinNonLin v5.0. Plasma samples were extracted using acetonitrile and analyzed by LC/MS-MS using a PhenomexSynergi Polar-RP 4 micron 50×2.0 mm column eluted with a biphasic mobile phase (0.5% formic acid in acetonitrile and water)."}, "[3]": {"tested_on": "H460 human lung adenocarcinoma xenografts", "experiment": "H460 xenograft tumor growth in athymic mice", "assay_type": "in vivo, BALB/c athymic mice", "conditions": "120 mg/kg oral daily"}, "LLC xenografts": {"tested_on": "LLC xenografts", "experiment": "FDG uptake by micro-positron emission tomography in tumor-bearing mice", "assay_type": "in vivo", "conditions": "120 mg/kg by gavage, once", "description": "At the end of the experiment, animals were euthanized, tumors removed and sections fixed in 10% formaldehyde for immunohistochemistry or snap-frozen in liquid nitrogen for analyses. Subsets of tumor-bearing mice (n=3) were injected i.p. with 2-[^18F]-fluoro-2-deoxyglucose (FDG, 150 μCi, 100 μl) and imaged by micro-positron emission tomography as previously described. Regions of interest in the tumors and cerebellum were quantified in quadruplicate and expressed as the mean±SD of the tumor:cerebellar FDG uptake ratio. Animal experiments were approved by the University of Louisville Institutional Animal Care and Use Committee."}}, "data": [{"smiles": "COc1cccc2c(NCCCCCO[N+](=O)[O-])ccnc12", "note": "[5MPN, 5-[(8-methoxyquinolin-4-yl)amino]pentyl nitrate]", "values": [{"measurement": "PFKFB4 activity (kinase activity of recombinant PFKFB4)", "setting": "human recombinant PFKFB4; 0, 0.1, 1 or 10 μM 5MPN, F6P 0-2000 μmol/L", "result": "significantly inhibited"}, {"measurement": "mode of inhibition, Lineweaver-Burk analyses", "setting": "human recombinant PFKFB4; F6P binding site", "result": "competitive inhibitor"}, {"measurement": "inhibition of a panel of 97 protein kinases", "setting": "[1]", "result": "not inhibited"}, {"measurement": "growth, viable cells", "setting": "H1299", "result": "dose-dependent reduction in growth"}, {"measurement": "growth, viable cells", "setting": "H441", "result": "dose-dependent reduction in growth"}, {"measurement": "growth, viable cells", "setting": "A549", "result": "dose-dependent reduction in growth"}, {"measurement": "growth, viable cells", "setting": "MDA-MB-231", "result": "dose-dependent reduction in growth"}, {"measurement": "growth, viable cells", "setting": "LNCaP", "result": "dose-dependent reduction in growth"}, {"measurement": "growth, viable cells", "setting": "HCT116", "result": "dose-dependent reduction in growth"}, {"measurement": "cell growth, live cells", "setting": "hT/LT/Ras cells", "result": "suppressed similar to other transformed cells"}, {"measurement": "cell cycle arrest in LLC cells in vitro", "setting": "LLC cells", "result": "G1 arrest"}, {"measurement": "oral bioavailability", "setting": "[2]", "result": "High Oral Bioavailability"}, {"measurement": "pharmacokinetics of intravenous and oral administration", "setting": "[2]; IV and oral", "result": "both routes were adequate to achieve potentially therapeutic concentrations"}, {"measurement": "body weight", "setting": "[3]; H460-bearing athymic mice", "result": "without affecting body weight"}, {"measurement": "tumor growth of H460 xenografts", "setting": "[3]; athymic mice", "result": "suppressed the growth"}, {"measurement": "2-[18F]-fluoro-2-deoxyglucose uptake, positron emission tomography", "setting": "LLC xenografts", "result": "marked reduction"}]}]}
